# Experimental data as given in PubChem BioAssay AID1963966 (Molecular Pharmacology Branch, DTP, NCI, 2024).
# Test system: 935938-334-R-J1-PDC spheroids with HUVEC/MSC, viability
# Experiment: Anticancer human tumor 935938-334-R-J1-PDC patient-derived small intestine adenocarcinoma cell line growth inhibition [PI3K]
# Conditions: for IC50: curve of first compound; for viability, T/C: stronger effect = lower value
# In short: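 High-throughput combination screen: PI3K inhibitors crossed with targeted small molecules on complex spheroids of tumor cells, HUVEC and MSCs at 37 degrees C, 5% CO2. Top concentration was at or near clinical Cmax (otherwise 10 microM), with half-log decrements.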
# [1] = second compound 0.0316 µM, first compound 0.000316 µM
# [2] = second compound 0.0316 µM, first compound 0.001 µM
# [3] = second compound 0.0316 µM, first compound 0.00316 µM
# [4] = second compound 0.0316 µM, first compound 0.01 µM
# [5] = second compound 0.0316 µM, first compound 0.0316 µM
# [6] = second compound 0.0316 µM, first compound 0.1 µM
# [7] = second compound 0.1 µM, first compound 0.000316 µM
# [8] = second compound 0.1 µM, first compound 0.001 µM
# [9] = second compound 0.1 µM, first compound 0.00316 µM
# [10] = second compound 0.1 µM, first compound 0.01 µM
# [11] = second compound 0.1 µM, first compound 0.0316 µM
# [12] = second compound 0.1 µM, first compound 0.1 µM
# [13] = second compound 0.316 µM, first compound 0.000316 µM
# [14] = second compound 0.316 µM, first compound 0.001 µM
# [15] = second compound 0.316 µM, first compound 0.00316 µM
# [16] = second compound 0.316 µM, first compound 0.01 µM
# [17] = second compound 0.316 µM, first compound 0.0316 µM
# [18] = second compound 0.316 µM, first compound 0.1 µM
# [19] = second compound 1 µM, first compound 0.000316 µM
# [20] = second compound 1 µM, first compound 0.001 µM
# [21] = second compound 1 µM, first compound 0.00316 µM
# [22] = second compound 1 µM, first compound 0.01 µM
# [23] = second compound 1 µM, first compound 0.0316 µM
# [24] = second compound 1 µM, first compound 0.1 µM
# [25] = second compound 3.16 µM, first compound 0.000316 µM
# [26] = second compound 3.16 µM, first compound 0.001 µM
# [27] = second compound 3.16 µM, first compound 0.00316 µM
# [28] = second compound 3.16 µM, first compound 0.01 µM
# [29] = second compound 3.16 µM, first compound 0.0316 µM
# [30] = second compound 3.16 µM, first compound 0.1 µM
# [31] = second compound 10 µM, first compound 0.000316 µM
# [32] = second compound 10 µM, first compound 0.001 µM
# [33] = second compound 10 µM, first compound 0.00316 µM
# [34] = second compound 10 µM, first compound 0.01 µM
# [35] = second compound 10 µM, first compound 0.0316 µM
# [36] = second compound 10 µM, first compound 0.1 µM
# 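Note: compound exposure lasted seven days before viability was read.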
# 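Throughout, for viability, T/C: percent of vehicle DMSO treated spheroid viability so 100% = untreated.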
compound,measurement,setting,value
CC(=O)c1c(C)c2cnc(Nc3ccc(N4CCNCC4)cn3)nc2n(C2CCCC2)c1=O + CC(Nc1ncnc2nc[nH]c12)c1cc2cccc(Cl)c2c(=O)n1-c1ccccc1,IC50,second compound 0.0316 µM,> 100 nM
same,IC50,second compound 0.1 µM,> 100 nM
same,IC50,second compound 0.316 µM,> 100 nM
same,IC50,second compound 1 µM,> 100 nM
same,IC50,second compound 3.16 µM,79.4 nM
same,IC50,second compound 10 µM,49 nM
same,"viability, T/C",[1],105%
same,"viability, T/C",[2],108%
same,"viability, T/C",[3],99%
same,"viability, T/C",[4],97.2%
same,"viability, T/C",[5],90%
same,"viability, T/C",[6],73%
same,"viability, T/C",[7],103%
same,"viability, T/C",[8],103%
same,"viability, T/C",[9],93%
same,"viability, T/C",[10],69.5%
same,"viability, T/C",[11],91.5%
same,"viability, T/C",[12],74.6%
same,"viability, T/C",[13],68.6%
same,"viability, T/C",[14],91.2%
same,"viability, T/C",[15],105%
same,"viability, T/C",[16],89.7%
same,"viability, T/C",[17],71.6%
same,"viability, T/C",[18],64.9%
same,"viability, T/C",[19],99.8%
same,"viability, T/C",[20],109%
same,"viability, T/C",[21],93%
same,"viability, T/C",[22],88.5%
same,"viability, T/C",[23],69.5%
same,"viability, T/C",[24],53.4%
same,"viability, T/C",[25],96.7%
same,"viability, T/C",[26],111%
same,"viability, T/C",[27],97.6%
same,"viability, T/C",[28],86.3%
same,"viability, T/C",[29],73.5%
same,"viability, T/C",[30],44.1%
same,"viability, T/C",[31],87.1%
same,"viability, T/C",[32],83.7%
same,"viability, T/C",[33],78.4%
same,"viability, T/C",[34],67.1%
same,"viability, T/C",[35],56.7%
same,"viability, T/C",[36],40.2%
CC(C)n1nc(-c2ccc3oc(N)nc3c2)c2c(N)ncnc21 + CC(Nc1ncnc2nc[nH]c12)c1cc2cccc(Cl)c2c(=O)n1-c1ccccc1,IC50,second compound 0.0316 µM,> 100 nM
same,IC50,second compound 0.1 µM,> 100 nM
same,IC50,second compound 0.316 µM,> 100 nM
same,IC50,second compound 1 µM,> 100 nM
same,IC50,second compound 3.16 µM,> 100 nM
same,IC50,second compound 10 µM,71.6 nM
same,"viability, T/C",[1],120%
same,"viability, T/C",[2],104%
same,"viability, T/C",[3],99.8%
same,"viability, T/C",[4],99.1%
same,"viability, T/C",[5],78.6%
same,"viability, T/C",[6],62.9%
same,"viability, T/C",[7],97.3%
same,"viability, T/C",[8],85.9%
same,"viability, T/C",[9],84.5%
same,"viability, T/C",[10],91.3%
same,"viability, T/C",[11],88.3%
same,"viability, T/C",[12],62%
same,"viability, T/C",[13],78.2%
same,"viability, T/C",[14],85.6%
same,"viability, T/C",[15],83.2%
same,"viability, T/C",[16],96.2%
same,"viability, T/C",[17],72.1%
same,"viability, T/C",[18],57.9%
same,"viability, T/C",[19],111%
same,"viability, T/C",[20],91.7%
same,"viability, T/C",[21],81.5%
same,"viability, T/C",[22],84%
same,"viability, T/C",[23],82.4%
same,"viability, T/C",[24],47.6%
same,"viability, T/C",[25],87.5%
same,"viability, T/C",[26],74%
same,"viability, T/C",[27],76.7%
same,"viability, T/C",[28],70.4%
same,"viability, T/C",[29],57.6%
same,"viability, T/C",[30],51.2%
same,"viability, T/C",[31],72.7%
same,"viability, T/C",[32],94.1%
same,"viability, T/C",[33],61.5%
same,"viability, T/C",[34],71.5%
same,"viability, T/C",[35],68.5%
same,"viability, T/C",[36],43%
